Laboratory results reported in ChEMBL document CHEMBL4000186, “Design and synthesis of novel 2-substituted 11-keto-boswellic acid heterocyclic derivatives as anti-prostate cancer agents with Pin1 inhibition ability” (Eur J Med Chem, 2017).

Legend:
PC-3 [1] = assay: Cell cycle arrest in human PC3 cells assessed as accumulation at sub G1 phase at 2.5 uM after 24 hrs by propidium iodide staining based flow cytometry (reference value: 1.9 %); type: functional
PC-3 [2] = assay: Cell cycle arrest in human PC3 cells assessed as accumulation at G0/G1 phase at 5 uM after 12 hrs by propidium iodide staining based flow cytometry (reference value: 65.6 %); type: functional
PC-3 [3] = assay: Cell cycle arrest in human PC3 cells assessed as accumulation at G0/G1 phase at 2.5 uM after 24 hrs by propidium iodide staining based flow cytometry (reference value: 63.9 %); type: functional
PC-3 [4] = assay: Induction of apoptosis in human PC3 cells assessed as decrease in pro-caspase 3 level measured after 24 hrs by Western blot method; type: functional, cell-based
PC-3 [5] = assay: Induction of apoptosis in human PC3 cells assessed as downregulation of Mcl-1 expression measured after 24 hrs by Western blot method; type: functional, cell-based
PC-3 [6] = assay: Cell cycle arrest in human PC3 cells assessed as accumulation at sub G1 phase at 1 uM after 12 hrs by propidium iodide staining based flow cytometry (reference value: 1.6 %); type: functional
PC-3 [7] = assay: Cell cycle arrest in human PC3 cells assessed as accumulation at G2/M phase at 2.5 uM after 24 hrs by propidium iodide staining based flow cytometry (reference value: 22.7 %); type: functional
[8] = molecular target: T1, Peptidyl-prolyl cis-trans isomerase NIMA-interacting 1 (Homo sapiens, UniProt Q13526); assay: Inhibition of Pin1 in human PC3 cells assessed as downregulation of cyclin D1 expression measured after 24 hrs by Western blot method; type: cell-based
T1 sequence (Q13526 whole entry): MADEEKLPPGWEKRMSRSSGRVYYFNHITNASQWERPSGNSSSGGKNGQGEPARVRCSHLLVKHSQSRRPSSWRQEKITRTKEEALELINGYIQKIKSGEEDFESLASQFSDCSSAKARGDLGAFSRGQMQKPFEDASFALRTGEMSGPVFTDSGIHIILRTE

PC-3 [9] = assay: Induction of apoptosis in human PC3 cells assessed as decrease in pro-caspase 8 level measured after 24 hrs by Western blot method; type: functional, cell-based
PC-3 [10] = assay: Induction of apoptosis in human PC3 cells assessed as induction of NOXA expression measured after 24 hrs by Western blot method; type: functional, cell-based
PC-3 [11] = assay: Cell cycle arrest in human PC3 cells assessed as accumulation at sub G1 phase at 1 uM after 24 hrs by propidium iodide staining based flow cytometry (reference value: 1.9 %); type: functional
PC-3 [12] = assay: Induction of apoptosis in human PC3 cells assessed as downregulation of c-FLIP expression measured after 24 hrs by Western blot method; type: functional, cell-based
PC-3 [13] = assay: Cell cycle arrest in human PC3 cells assessed as accumulation at sub G1 phase at 2.5 uM after 12 hrs by propidium iodide staining based flow cytometry (reference value: 1.6 %); type: functional
PC-3 [14] = assay: Cell cycle arrest in human PC3 cells assessed as accumulation at G0/G1 phase at 1 uM after 24 hrs by propidium iodide staining based flow cytometry (reference value: 63.9 %); type: functional
PC-3 [15] = assay: Cell cycle arrest in human PC3 cells assessed as accumulation at G2/M phase at 5 uM after 12 hrs by propidium iodide staining based flow cytometry (reference value: 22.4 %); type: functional
LNCaP = assay: Anti-proliferative activity against human LNCAP cells measured after 96 hrs by MTT assay; type: functional
PC-3 [16] = assay: Cell cycle arrest in human PC3 cells assessed as accumulation at sub G1 phase at 5 uM after 12 hrs by propidium iodide staining based flow cytometry (reference value: 1.6 %); type: functional
[17] = molecular target: T1, Peptidyl-prolyl cis-trans isomerase NIMA-interacting 1; assay: Inhibition of Pin1 (unknown origin) using Suc-Ala-Glu-cis-Pro-Phe-4-nitroanilide as substrate preincubated for 30 mins followed by substrate addition measured for 90 secs by protease-enzyme coupled assay
PC-3 [18] = assay: Anti-proliferative activity against human PC3 cells measured after 96 hrs by MTT assay; type: functional; settings: PC-3, 96 h
PC-3 [19] = assay: Cell cycle arrest in human PC3 cells assessed as accumulation at sub G1 phase at 5 uM after 24 hrs by propidium iodide staining based flow cytometry (reference value: 1.9 %); type: functional
PC-3 [20] = assay: Cell cycle arrest in human PC3 cells assessed as accumulation at G0/G1 phase at 5 uM after 24 hrs by propidium iodide staining based flow cytometry (reference value: 63.9 %); type: functional
PC-3 [21] = assay: Cell cycle arrest in human PC3 cells assessed as accumulation at G2/M phase at 1 uM after 24 hrs by propidium iodide staining based flow cytometry (reference value: 22.7 %); type: functional
PC-3 [22] = assay: Cell cycle arrest in human PC3 cells assessed as accumulation at G2/M phase at 5 uM after 24 hrs by propidium iodide staining based flow cytometry (reference value: 22.7 %); type: functional
PC-3 [23] = assay: Induction of apoptosis in human PC3 cells assessed as decrease in pro-caspase 9 level measured after 24 hrs by Western blot method; type: functional, cell-based
PC-3 [24] = assay: Cell cycle arrest in human PC3 cells assessed as accumulation at G2/M phase at 1 uM after 12 hrs by propidium iodide staining based flow cytometry (reference value: 22.4 %); type: functional
PC-3 [25] = assay: Cell cycle arrest in human PC3 cells assessed as accumulation at G2/M phase at 2.5 uM after 12 hrs by propidium iodide staining based flow cytometry (reference value: 22.4 %); type: functional
PC-3 [26] = assay: Cell cycle arrest in human PC3 cells assessed as accumulation at G0/G1 phase at 1 uM after 12 hrs by propidium iodide staining based flow cytometry (reference value: 65.6 %); type: functional
PC-3 [27] = assay: Cell cycle arrest in human PC3 cells assessed as accumulation at G0/G1 phase at 2.5 uM after 12 hrs by propidium iodide staining based flow cytometry (reference value: 65.6 %); type: functional

SMILES: C[C@H]1[C@H](C)CC[C@]2(C)CC[C@]3(C)C(=CC(=O)[C@@H]4[C@@]5(C)C=C(C#N)C(=O)[C@](C)(C(=O)N6CCNCC6)[C@@H]5CC[C@]43C)[C@H]12
- Activity (PC-3 [1]): 34.6%
- Activity (PC-3 [2]): 47.8%
- Activity (PC-3 [3]): 33.7%
- Activity (PC-3 [4]): Dose-dependent effect
- Activity (PC-3 [5]): Dose-dependent effect
- Activity (PC-3 [6]): 2.7%
- Activity (PC-3 [7]): 22%
- inhibition [8]: Dose-dependent effect
- Activity (PC-3 [9]): Dose-dependent effect
- Activity (PC-3 [10]): Dose-dependent effect
- Activity (PC-3 [11]): 8%
- Activity (PC-3 [12]): Dose-dependent effect
- Activity (PC-3 [13]): 10.2%
- Activity (PC-3 [14]): 45.4%
- Activity (PC-3 [15]): 22.8%
- GI50 (LNCaP): 270 nM
- Activity (PC-3 [16]): 19.5%
- IC50 [17]: 3570 nM
- GI50 (PC-3 [18]): 40 nM
- Activity (PC-3 [19]): 88.1%
- Activity (PC-3 [20]): 3.7%
- Activity (PC-3 [21]): 29.7%
- Activity (PC-3 [22]): 1.8%
- Activity (PC-3 [23]): Dose-dependent effect
- Activity (PC-3 [24]): 26.1%
- Activity (PC-3 [25]): 27.6%
- Activity (PC-3 [26]): 58.5%
- Activity (PC-3 [27]): 52.2%
